Laboratory results as given in PubChem BioAssay AID248 (DTP/NCI, 2004).
Several values for one entry are separate records, joined by “and”; a condition that tells them apart may be missing. Equal values may be shown once. Inconclusive results and toxic doses are left out. No stated cut-off is given here; in the data, active means T/C of 150% or more; inactive means T/C below 125%.

Test system: L1210 leukemia ip in BDF1 mice, survival T/C
Test: NCI In Vivo Anticancer Drug Screen. Data for tumor model L1210 Leukemia (intraperitoneal) in B6D2F1 (BDF1) mice
Conditions: higher = longer survival
In short: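 Tumor cells were implanted, animals were treated, and survival was followed. The result divides the treated measurement by the vehicle-control measurement.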

Measured: T/C

O=c1[nH]c(=O)n(C2CC(O)C(CO)O2)cc1F (configuration not stated)
inactive: endpoint: mean survival time, dose: 2.3 mg/kg/injection, schedule: Q01DX009 (ip), vehicle: saline 95 % of control and 100 % of control | endpoint: mean survival time, dose: 2.5 mg/kg/injection, schedule: Q01DX009 (ip), vehicle: saline 105 % of control | endpoint: mean survival time, dose: 3.12 mg/kg/injection, schedule: Q#A X Z (ip), vehicle: saline 109 % of control | endpoint: mean survival time, dose: 4.5 mg/kg/injection, schedule: Q01DX009 (ip), vehicle: saline 106 % of control | endpoint: mean survival time, dose: 5.0 mg/kg/injection, schedule: Q01DX009 (ip), vehicle: saline 103 % of control | endpoint: mean survival time, dose: 5.0 mg/kg/injection, schedule: Q01DX009 (oral), vehicle: saline 105 % of control | endpoint: mean survival time, dose: 6.25 mg/kg/injection, schedule: Q01DX Z (ip), vehicle: saline 105 % of control | endpoint: mean survival time, dose: 6.25 mg/kg/injection, schedule: Q#A X Z (ip), vehicle: saline 114 % of control | endpoint: mean survival time, dose: 9.0 mg/kg/injection, schedule: Q01DX009 (ip), vehicle: saline 103 % of control and 110 % of control | endpoint: mean survival time, dose: 10.0 mg/kg/injection, schedule: Q01DX005 (ip), vehicle: water 99 % of control and 102 % of control | endpoint: mean survival time, dose: 10.0 mg/kg/injection, schedule: Q01DX009 (ip), vehicle: saline 112 % of control | endpoint: mean survival time, dose: 10.0 mg/kg/injection, schedule: Q01DX009 (oral), vehicle: saline 98 % of control | endpoint: mean survival time, dose: 11.0 mg/kg/injection, schedule: Q07DX Z (ip), vehicle: saline 106 % of control | endpoint: mean survival time, dose: 12.5 mg/kg/injection, schedule: Q01DX Z (ip), vehicle: saline 111 % of control | endpoint: mean survival time, dose: 18.0 mg/kg/injection, schedule: Q04DX002 (ip), vehicle: saline 106 % of control and 115 % of control | endpoint: mean survival time, dose: 20.0 mg/kg/injection, schedule: Q01DX009 (oral), vehicle: saline 105 % of control | endpoint: mean survival time, dose: 20.0 mg/kg/injection, schedule: Q01DX015 (ip), vehicle: water 111 % of control | endpoint: mean survival time, dose: 20.0 mg/kg/injection, schedule: Q01DX Z (ip), vehicle: saline 105 % of control | endpoint: mean survival time, dose: 22.0 mg/kg/injection, schedule: Q07DX Z (ip), vehicle: saline 102 % of control | endpoint: mean survival time, dose: 25.0 mg/kg/injection, schedule: Q01DX006 (iv), vehicle: saline 110 % of control | endpoint: mean survival time, dose: 25.0 mg/kg/injection, schedule: Q01DX Z (ip), vehicle: saline 111 % of control | endpoint: mean survival time, dose: 25.0 mg/kg/injection, schedule: Q01DX Z (sc), vehicle: saline 111 % of control | endpoint: mean survival time, dose: 25.9 mg/kg/injection, schedule: Q01DX009 (ip), vehicle: saline 115 % of control | endpoint: mean survival time, dose: 29.0 mg/kg/injection, schedule: Q02DX008 (ip), vehicle: water 98 % of control | endpoint: mean survival time, dose: 30.0 mg/kg/injection, schedule: Q01DX015 (ip), vehicle: water 108 % of control | endpoint: mean survival time, dose: 30.0 mg/kg/injection, schedule: Q01DX Z (ip), vehicle: saline 106 % of control | endpoint: mean survival time, dose: 36.0 mg/kg/injection, schedule: Q04DX002 (ip), vehicle: saline 100 % of control and 110 % of control | endpoint: mean survival time, dose: 40.0 mg/kg/injection, schedule: Q01DX Z (ip), vehicle: saline 112 % of control | endpoint: mean survival time, dose: 42.0 mg/kg/injection, schedule: Q02DX008 (ip), vehicle: water 101 % of control | endpoint: mean survival time, dose: 44.0 mg/kg/injection, schedule: Q07DX Z (ip), vehicle: saline 106 % of control | endpoint: mean survival time, dose: 50.0 mg/kg/injection, schedule: Q01DX001 (ip), vehicle: saline 107 % of control | endpoint: mean survival time, dose: 50.0 mg/kg/injection, schedule: Q01DX Z (oral), vehicle: saline 107 % of control | endpoint: mean survival time, dose: 50.0 mg/kg/injection, schedule: Q02DX009 (ip), vehicle: saline 110 % of control | endpoint: mean survival time, dose: 50.0 mg/kg/injection, schedule: Q04DX003 (ip), vehicle: saline 105 % of control | endpoint: mean survival time, dose: 60.0 mg/kg/injection, schedule: Q## X004 (ip), vehicle: water 108 % of control | endpoint: mean survival time, dose: 63.0 mg/kg/injection, schedule: Q02DX008 (ip), vehicle: water 111 % of control | endpoint: mean survival time, dose: 75.0 mg/kg/injection, schedule: Q03DX006 (ip), vehicle: saline 111 % of control | endpoint: mean survival time, dose: 80.0 mg/kg/injection, schedule: Q01DX Z (ip), vehicle: saline 102 % of control | endpoint: mean survival time, dose: 80.0 mg/kg/injection, schedule: Q## X032 (ip), vehicle: water 108 % of control | endpoint: mean survival time, dose: 88.0 mg/kg/injection, schedule: Q07DX Z (ip), vehicle: saline 113 % of control | endpoint: mean survival time, dose: 90.0 mg/kg/injection, schedule: Q## X004 (ip), vehicle: water 98 % of control | endpoint: mean survival time, dose: 100.0 mg/kg/injection, schedule: Q01DX001 (ip), vehicle: saline 104 % of control and 110 % of control | endpoint: mean survival time, dose: 100.0 mg/kg/injection, schedule: Q01DX001 (ip), vehicle: water 100 % of control | endpoint: mean survival time, dose: 100.0 mg/kg/injection, schedule: Q01DX005 (ip), vehicle: saline 116 % of control | endpoint: mean survival time, dose: 100.0 mg/kg/injection, schedule: Q01DX Z (sc), vehicle: saline 111 % of control | endpoint: mean survival time, dose: 100.0 mg/kg/injection, schedule: Q04DX003 (ip), vehicle: saline 111 % of control | endpoint: mean survival time, dose: 100.0 mg/kg/injection, schedule: Q04DX005 (ip), vehicle: saline 115 % of control | endpoint: mean survival time, dose: 100.0 mg/kg/injection, schedule: Q#A X Z (ip), vehicle: saline 105 % of control | endpoint: mean survival time, dose: 125.0 mg/kg/injection, schedule: Q01DX001 (ip), vehicle: saline 112 % of control | endpoint: mean survival time, dose: 150.0 mg/kg/injection, schedule: Q01DX001 (ip), vehicle: water 102 % of control | endpoint: mean survival time, dose: 160.0 mg/kg/injection, schedule: Q01DX009 (ip), vehicle: saline 100 % of control | endpoint: mean survival time, dose: 160.0 mg/kg/injection, schedule: Q01DX009 (oral), vehicle: saline 101 % of control | endpoint: mean survival time, dose: 160.0 mg/kg/injection, schedule: Q01DX Z (ip), vehicle: saline 110 % of control | endpoint: mean survival time, dose: 175.0 mg/kg/injection, schedule: Q07DX003 (ip), vehicle: saline 114 % of control | endpoint: mean survival time, dose: 200.0 mg/kg/injection, schedule: Q01DX001 (ip), vehicle: saline 106 % of control and 107 % of control | endpoint: mean survival time, dose: 200.0 mg/kg/injection, schedule: Q01DX017 (ip), vehicle: saline 100 % of control | endpoint: mean survival time, dose: 200.0 mg/kg/injection, schedule: Q01DX Z (im), vehicle: saline 107 % of control | endpoint: mean survival time, dose: 200.0 mg/kg/injection, schedule: Q01DX Z (ip), vehicle: carboxymethylcellulose (CMC) 94 % of control | endpoint: mean survival time, dose: 200.0 mg/kg/injection, schedule: Q01DX Z (ip), vehicle: saline 102 % of control | endpoint: mean survival time, dose: 200.0 mg/kg/injection, schedule: Q01DX Z (sc), vehicle: saline 96 % of control | endpoint: mean survival time, dose: 200.0 mg/kg/injection, schedule: Q04DX002 (ip), vehicle: water 112 % of control | endpoint: mean survival time, dose: 225.0 mg/kg/injection, schedule: Q01DX001 (ip), vehicle: water 110 % of control | endpoint: mean survival time, dose: 250.0 mg/kg/injection, schedule: Q01DX001 (ip), vehicle: saline 109 % of control | endpoint: mean survival time, dose: 250.0 mg/kg/injection, schedule: Q01DX Z (ip), vehicle: saline 95 % of control | endpoint: mean survival time, dose: 270.0 mg/kg/injection, schedule: Q01DX009 (ip), vehicle: saline 115 % of control | endpoint: mean survival time, dose: 270.0 mg/kg/injection, schedule: Q## X009 (ip), vehicle: saline 115 % of control | endpoint: mean survival time, dose: 300.0 mg/kg/injection, schedule: Q02DX010 (ip), vehicle: other 108 % of control | endpoint: mean survival time, dose: 320.0 mg/kg/injection, schedule: Q01DX009 (ip), vehicle: saline 101 % of control and 108 % of control | endpoint: mean survival time, dose: 320.0 mg/kg/injection, schedule: Q01DX009 (oral), vehicle: saline 93 % of control | endpoint: mean survival time, dose: 335.0 mg/kg/injection, schedule: Q01DX001 (ip), vehicle: saline 115 % of control | endpoint: mean survival time, dose: 350.0 mg/kg/injection, schedule: Q01DX Z (ip), vehicle: saline 104 % of control | endpoint: mean survival time, dose: 375.0 mg/kg/injection, schedule: Q04DX003 (ip), vehicle: saline 112 % of control | endpoint: mean survival time, dose: 400.0 mg/kg/injection, schedule: Q01DX001 (ip), vehicle: saline 116 % of control | endpoint: mean survival time, dose: 400.0 mg/kg/injection, schedule: Q01DX009 (ip), vehicle: saline 102 % of control | endpoint: mean survival time, dose: 400.0 mg/kg/injection, schedule: Q01DX Z (oral), vehicle: saline 105 % of control | endpoint: mean survival time, dose: 400.0 mg/kg/injection, schedule: Q02DX009 (ip), vehicle: saline 100 % of control | endpoint: mean survival time, dose: 450.0 mg/kg/injection, schedule: Q02DX010 (ip), vehicle: carboxymethylcellulose (CMC) 113 % of control | endpoint: mean survival time, dose: 450.0 mg/kg/injection, schedule: Q02DX010 (ip), vehicle: other 92 % of control | endpoint: mean survival time, dose: 500.0 mg/kg/injection, schedule: Q04DX003 (ip), vehicle: saline 105 % of control | endpoint: mean survival time, dose: 640.0 mg/kg/injection, schedule: Q01DX009 (ip), vehicle: saline 95 % of control | endpoint: mean survival time, dose: 640.0 mg/kg/injection, schedule: Q01DX009 (oral), vehicle: saline 96 % of control | endpoint: mean survival time, dose: 700.0 mg/kg/injection, schedule: Q07DX003 (ip), vehicle: saline 111 % of control | endpoint: mean survival time, dose: 714.0 mg/kg/injection, schedule: Q02DX008 (ip), vehicle: saline 113 % of control | endpoint: mean survival time, dose: 750.0 mg/kg/injection, schedule: Q01DX001 (ip), vehicle: saline 112 % of control | endpoint: mean survival time, dose: 800.0 mg/kg/injection, schedule: Q01DX001 (ip), vehicle: water 108 % of control | endpoint: mean survival time, dose: 800.0 mg/kg/injection, schedule: Q01DX Z (oral), vehicle: saline 108 % of control | endpoint: mean survival time, dose: 800.0 mg/kg/injection, schedule: Q04DX003 (ip), vehicle: saline 113 % of control | endpoint: mean survival time, dose: 800.0 mg/kg/injection, schedule: Q04DX005 (ip), vehicle: saline 114 % of control | endpoint: mean survival time, dose: 1071.0 mg/kg/injection, schedule: Q02DX008 (ip), vehicle: saline 104 % of control | endpoint: mean survival time, dose: 1344.0 mg/kg/injection, schedule: Q## X032 (ip), vehicle: water 107 % of control | endpoint: median survival time, dose: 160.0 mg/kg/injection, schedule: Q01DX009 (ip), vehicle: saline 100 % of control | endpoint: median survival time, dose: 320.0 mg/kg/injection, schedule: Q01DX009 (ip), vehicle: saline 106 % of control
